“And” between values parts separate entries of the source, which are not always exact repeats. Equal values may be shown once. One block for each molecule: values may come before it.
System: NCI-H929 complex spheroids, viability % test/control
Experiment: Anticancer human tumor NCI-H929 cell line growth inhibition [RAS];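 also: compound exposure lasted seven days before viability was read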;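 as to viability, T/C: 100% = DMSO vehicle control viability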
Details: for viability, T/C: stronger effect = lower value
Procedure, shortened: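 Tumour cells grown as complex spheroids with HUVEC endothelial cells and mesenchymal stem cells, treated with RAS pathway inhibitor combinations. Each agent spans half-log steps from near clinical Cmax, or 10 microM where Cmax is unknown.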

IC50 (curve of first compound, second compound 0.000949 µM): > 10000 nM | IC50 (curve of first compound, second compound 0.003 µM): > 10000 nM | IC50 (curve of first compound, second compound 0.00949 µM): > 10000 nM | IC50 (curve of first compound, second compound 0.03 µM): > 10000 nM | IC50 (curve of first compound, second compound 0.0949 µM): 9050 nM | IC50 (curve of first compound, second compound 0.3 µM): 8980 nM
Structure (SMILES): NC1c2ccccc2OC12CCN(c1cnc3c(N4CCCc5ncccc54)n[nH]c3n1)CC2 (stereo unspecified) + CCn1c(-c2cccnc2C(C)OC)c2c3cc(ccc31)N1CCOC(CC(NC(=O)C(C(C)C)N(C)C(=O)C3(F)CCN(C(=O)C#CC(C)(C)N(C)C)CC3)C(=O)N3CCCC(N3)C(=O)OCC(C)(C)C2)C1
viability, T/C (second compound 0.000949 µM, first compound 0.0316 µM): 103% | viability, T/C (second compound 0.000949 µM, first compound 0.1 µM): 100% | viability, T/C (second compound 0.000949 µM, first compound 0.316 µM): 103% | viability, T/C (second compound 0.000949 µM, first compound 1 µM): 98.5% | viability, T/C (second compound 0.000949 µM, first compound 3.16 µM): 94.5% | viability, T/C (second compound 0.000949 µM, first compound 10 µM): 60.7% | viability, T/C (second compound 0.003 µM, first compound 0.0316 µM): 103% | viability, T/C (second compound 0.003 µM, first compound 0.1 µM): 96.5% | viability, T/C (second compound 0.003 µM, first compound 0.316 µM): 102% | viability, T/C (second compound 0.003 µM, first compound 1 µM): 97.7% | viability, T/C (second compound 0.003 µM, first compound 3.16 µM): 95.7% | viability, T/C (second compound 0.003 µM, first compound 10 µM): 58.5% | viability, T/C (second compound 0.00949 µM, first compound 0.0316 µM): 101% | viability, T/C (second compound 0.00949 µM, first compound 0.1 µM): 99.6% | viability, T/C (second compound 0.00949 µM, first compound 0.316 µM): 101% | viability, T/C (second compound 0.00949 µM, first compound 1 µM): 96.8% | viability, T/C (second compound 0.00949 µM, first compound 3.16 µM): 93.2% | viability, T/C (second compound 0.00949 µM, first compound 10 µM): 54.1% | viability, T/C (second compound 0.03 µM, first compound 0.0316 µM): 97.7% | viability, T/C (second compound 0.03 µM, first compound 0.1 µM): 96.9% | viability, T/C (second compound 0.03 µM, first compound 0.316 µM): 99.8% | viability, T/C (second compound 0.03 µM, first compound 1 µM): 99.7% | viability, T/C (second compound 0.03 µM, first compound 3.16 µM): 90.9% | viability, T/C (second compound 0.03 µM, first compound 10 µM): 54.2% | viability, T/C (second compound 0.0949 µM, first compound 0.0316 µM): 99.1% | viability, T/C (second compound 0.0949 µM, first compound 0.1 µM): 98.2% | viability, T/C (second compound 0.0949 µM, first compound 0.316 µM): 93.6% | viability, T/C (second compound 0.0949 µM, first compound 1 µM): 91.2% | viability, T/C (second compound 0.0949 µM, first compound 3.16 µM): 86.5% | viability, T/C (second compound 0.0949 µM, first compound 10 µM): 46.3% | viability, T/C (second compound 0.3 µM, first compound 0.0316 µM): 95.7% | viability, T/C (second compound 0.3 µM, first compound 0.1 µM): 99.6% | viability, T/C (second compound 0.3 µM, first compound 0.316 µM): 99.5% | viability, T/C (second compound 0.3 µM, first compound 1 µM): 93.2% | viability, T/C (second compound 0.3 µM, first compound 3.16 µM): 76.8% | viability, T/C (second compound 0.3 µM, first compound 10 µM): 47.2%

IC50 (curve of compound): > 1000 nM and 672 nM and 724 nM
Structure (SMILES): O=C(c1ccc(F)c(F)c1Nc1ccc(I)cc1F)N1CC(O)([C@@H]2CCCCN2)C1
viability, T/C (compound 0.00316 µM): 105% [middle of 4 runs] | viability, T/C (compound 0.01 µM): 95.4% [middle of 4 runs] | viability, T/C (compound 0.1 µM): 96.1% [middle of 4 runs] | viability, T/C (compound 0.316 µM): 115% [middle of 4 runs]

IC50 (curve of first compound, second compound 0.0316 µM): 18.2 nM | IC50 (curve of first compound, second compound 0.1 µM): 18.5 nM | IC50 (curve of first compound, second compound 0.316 µM): 18.5 nM | IC50 (curve of first compound, second compound 1 µM): 18.1 nM | IC50 (curve of first compound, second compound 3.16 µM): 18.5 nM | IC50 (curve of first compound, second compound 10 µM): 17.8 nM
Structure (SMILES): Nc1ccn(C2OC(CO)C(O)C2(F)F)c(=O)n1 (stereo unspecified) + C#Cc1c(F)ccc2cc(O)cc(-c3ncc4c(N5CC6CCC(C5)N6)nc(OCC56CCCN5CC(F)C6)nc4c3F)c12
viability, T/C (second compound 0.0316 µM, first compound 0.00316 µM): 97.9% | viability, T/C (second compound 0.0316 µM, first compound 0.01 µM): 106% | viability, T/C (second compound 0.0316 µM, first compound 0.0316 µM): 1.73% | viability, T/C (second compound 0.0316 µM, first compound 0.1 µM): 1.71% | viability, T/C (second compound 0.0316 µM, first compound 0.316 µM): 1.77% | viability, T/C (second compound 0.0316 µM, first compound 1 µM): 0.97% | viability, T/C (second compound 0.1 µM, first compound 0.00316 µM): 99.5% | viability, T/C (second compound 0.1 µM, first compound 0.01 µM): 111% | viability, T/C (second compound 0.1 µM, first compound 0.0316 µM): 2.14% | viability, T/C (second compound 0.1 µM, first compound 0.1 µM): 1.9% | viability, T/C (second compound 0.1 µM, first compound 0.316 µM): 0.95% | viability, T/C (second compound 0.1 µM, first compound 1 µM): 1.51% | viability, T/C (second compound 0.316 µM, first compound 0.00316 µM): 102% | viability, T/C (second compound 0.316 µM, first compound 0.01 µM): 106% | viability, T/C (second compound 0.316 µM, first compound 0.0316 µM): 2.97% | viability, T/C (second compound 0.316 µM, first compound 0.1 µM): 2.03% | viability, T/C (second compound 0.316 µM, first compound 0.316 µM): 1.39% | viability, T/C (second compound 0.316 µM, first compound 1 µM): 1.19% | viability, T/C (second compound 1 µM, first compound 0.00316 µM): 97.4% | viability, T/C (second compound 1 µM, first compound 0.01 µM): 105% | viability, T/C (second compound 1 µM, first compound 0.0316 µM): 1.48% | viability, T/C (second compound 1 µM, first compound 0.1 µM): 1.24% | viability, T/C (second compound 1 µM, first compound 0.316 µM): 0.95% | viability, T/C (second compound 1 µM, first compound 1 µM): 0.85% | viability, T/C (second compound 3.16 µM, first compound 0.00316 µM): 97.4% | viability, T/C (second compound 3.16 µM, first compound 0.01 µM): 108% | viability, T/C (second compound 3.16 µM, first compound 0.0316 µM): 3.7% | viability, T/C (second compound 3.16 µM, first compound 0.1 µM): 1.57% | viability, T/C (second compound 3.16 µM, first compound 0.316 µM): 1.67% | viability, T/C (second compound 3.16 µM, first compound 1 µM): 1.18% | viability, T/C (second compound 10 µM, first compound 0.00316 µM): 102% | viability, T/C (second compound 10 µM, first compound 0.01 µM): 97.2% | viability, T/C (second compound 10 µM, first compound 0.0316 µM): 2.56% | viability, T/C (second compound 10 µM, first compound 0.1 µM): 1.28% | viability, T/C (second compound 10 µM, first compound 0.316 µM): 1.24% | viability, T/C (second compound 10 µM, first compound 1 µM): 0.87%

IC50 (curve of compound): > 10000 nM
Structure (SMILES): Cc1nc(N2CCC3(CC2)COC(C)C3N)c(CO)nc1Sc1ccnc(N)c1Cl (stereo unspecified)
viability, T/C (compound 0.0316 µM): 110% [middle of 4 runs] | viability, T/C (compound 0.1 µM): 99% [middle of 4 runs] | viability, T/C (compound 0.316 µM): 107% [middle of 4 runs] | viability, T/C (compound 1 µM): 100% [middle of 4 runs] | viability, T/C (compound 3.16 µM): 105% [middle of 4 runs] | viability, T/C (compound 10 µM): 103% [middle of 4 runs]

— PubChem BioAssay AID2060884 (Molecular Pharmacology Branch, DTP, NCI, 2025)
